Reference: patent US20240083853A1, “HSD17B13 INHIBITORS AND USES THEREOF” (FL2022-001, Inc., priority 2020, published 2024)
Where a name gives a salt, the structure may show the parent alone.

Target: T1, Recombinant human HSD17B13 enzyme (Homo sapiens, UniProt Q7Z5P4)
T1 sequence (Q7Z5P4 20-300): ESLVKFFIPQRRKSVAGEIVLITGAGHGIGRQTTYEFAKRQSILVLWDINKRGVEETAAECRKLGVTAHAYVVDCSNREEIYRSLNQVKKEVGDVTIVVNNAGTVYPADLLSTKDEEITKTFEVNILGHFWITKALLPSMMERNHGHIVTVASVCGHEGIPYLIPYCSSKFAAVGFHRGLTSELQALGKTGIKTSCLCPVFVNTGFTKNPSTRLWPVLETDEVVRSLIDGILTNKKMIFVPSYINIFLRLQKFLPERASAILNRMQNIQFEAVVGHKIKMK
Assay: HSD17b13 NAD(P)H-Glo biochemical assay
Settings: for IC50: 50 uM estradiol, 1 mM NAD+, NAD(P)H-Glo luminescence, read-out: HSD17β13 IC50
Procedure, shortened: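 Luminescent NAD(P)H-Glo read-out, taken after 1 hour at RT, measured cofactor reduction. Substrate and cofactor were estradiol at 50 uM and NAD+ at 1 mM final, reacted with the recombinant human enzyme for 3 hours at 37° C in 20 mM Tris pH7.4, 0.002% Tween-20, 0.02% BSA. Compound was pre-incubated with enzyme for 20 minutes at RT.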

| IC50 [µM] | SMILES | inhibition at 10 µM (3 h, read-out: HSD17β13 % at 10 uM) [%] |
| --- | --- | --- |
| < 0.1 | CC1(C)CCC(c2ccc(-n3ncc4cc(F)c(O)c(F)c43)cc2)CC1 [Compound 27, 1-(4-(4,4-Dimethylcyclohexyl)phenyl)-5,7-difluoro-1H-indazol-6-ol] | – |
| < 0.1 | Oc1c(F)cc2cnn(-c3ccc(C4=CCCCC4)cc3)c2c1F [Compound 27.1, 5,7-Difluoro-1-(2′,3′,4′,5′-tetrahydro-[1,1′-biphenyl]-4-yl)-1H-indazol-6-ol] | – |
| < 0.1 | CC1(C)CC=C(c2ccc(-n3ncc4cc(F)c(O)c(F)c43)cc2)CC1 [Compound 27.2, 1-(4′,4′-Dimethyl-2′,3′,4′,5′-tetrahydro-[1,1′-biphenyl]-4-yl)-5,7-difluoro-1H-indazol-6-ol] | – |
| < 0.1 | Oc1c(F)cc2cnn(-c3ccc(C4=CCOCC4)cc3)c2c1F [Compound 27.3, 1-(4-(3,6-Dihydro-2H-pyran-4-yl)phenyl)-5,7-difluoro-1H-indazol-6-ol] | – |
| < 0.1 | CS(=O)(=O)N1CC=C(c2ccc(-n3ncc4cc(F)c(O)c(F)c43)cc2)CC1 [Compound 27.4, 5,7-Difluoro-1-(4-(1-(methylsulfonyl)-1,2,3,6-tetrahydropyridin-4-yl)phenyl)-1H-indazol-6-ol] | – |
| < 0.1 | Oc1c(F)cc2cnn(-c3ccc(C4CCCCC4)cc3)c2c1F [Compound 27.5, 1-(4-Cyclohexylphenyl)-5,7-difluoro-1H-indazol-6-ol] | – |
| < 0.1 | Oc1c(F)cc2cnn(-c3ccc(C4CCOCC4)cc3)c2c1F [Compound 27.6, 5,7-Difluoro-1-(4-(tetrahydro-2H-pyran-4-yl)phenyl)-1H-indazol-6-ol] | – |
| < 0.1 | CS(=O)(=O)N1CCC(c2ccc(-n3ncc4cc(F)c(O)c(F)c43)cc2)CC1 [Compound 27.7, 5,7-Difluoro-1-(4-(1-(methylsulfonyl)piperidin-4-yl)phenyl)-1H-indazol-6-ol] | – |
| < 0.1 | CC(C)N1CCC(c2ccc(-n3ncc4cc(F)c(O)c(F)c43)cc2)CC1 [Compound 27.8, 5,7-Difluoro-1-(4-(1-isopropylpiperidin-4-yl)phenyl)-1H-indazol-6-ol] | – |
| < 0.1 | CS(=O)(=O)N1CCC(c2ccc(-n3nnc4cc(F)c(O)c(F)c43)cc2)CC1 [Compound 27.9, 5,7-Difluoro-1-(4-(1-(methylsulfonyl)piperidin-4-yl)phenyl)-1H-benzo[d][1,2,3]triazol-6-ol] | – |
| 0.1 to 1 | CN1CCC(c2ccc(-n3ncc4cc(F)c(O)c(F)c43)cc2)CC1 [Compound 27.10, 5,7-Difluoro-1-(4-(1-methylpiperidin-4-yl)phenyl)-1H-indazol-6-ol] | – |
| < 0.1 | CS(=O)(=O)N1CCC(c2ccc(-n3cnc4cc(F)c(O)c(F)c43)cc2)CC1 [Compound 28, 5,7-Difluoro-1-(4-(1-(methylsulfonyl)piperidin-4-yl)phenyl)-1H-benzo[d]imidazol-6-ol] | – |
| < 0.1 | CCN1CCC(c2ccc(-n3ncc4cc(F)c(O)c(F)c43)cc2)CC1 [Compound 29, 1-(4-(1-Ethylpiperidin-4-yl)phenyl)-5,7-difluoro-1H-indazol-6-ol TFA salt] | – |
| 0.1 to 1 | CS(=O)(=O)N1CC(c2ccc(-n3ncc4cc(F)c(O)c(F)c43)cc2)C1 [Compound 30, 5,7-Difluoro-1-(4-(1-(methylsulfonyl)azetidin-3-yl)phenyl)-1H-indazol-6-ol] | – |
| < 0.1 | CS(=O)(=O)N1CCCC(c2ccc(-n3ncc4cc(F)c(O)c(F)c43)cc2)C1 (stereo not drawn) [Compound 30.1, 5,7-Difluoro-1-(4-(1-(methylsulfonyl)piperidin-3-yl)phenyl)-1H-indazol-6-ol] | – |
| 0.1 to 1 | CS(=O)(=O)N1CCC(Oc2ccc(-n3ncc4cc(F)c(O)c(F)c43)cc2)CC1 [Compound 31, 5,7-Difluoro-1-(4-((1-(methylsulfonyl)piperidin-4-yl)oxy)phenyl)-1H-indazol-6-ol] | – |
| 0.1 to 1 | CC1CN(c2ccc(-n3ncc4cc(F)c(O)c(F)c43)cc2)CC(C)S1(=O)=O (stereo not drawn) [Compound 32, 4-(4-(5,7-Difluoro-6-hydroxy-1H-indazol-1-yl)phenyl)-2,6-dimethylthiomorpholine 1,1-dioxide] | – |
| 0.1 to 1 | [O-][S+]1CCC2(CC1)CN(c1ccc(-n3ncc4cc(F)c(O)c(F)c43)cc1)C2 [Compound 32.1, 2-(4-(5,7-Difluoro-6-hydroxy-1H-indazol-1-yl)phenyl)-7-thia-2-azaspiro[3.5]nonane 7-oxide] | – |
| 0.1 to 1 | [O-][S+]1CC2(CN(c3ccc(-n4ncc5cc(F)c(O)c(F)c54)cc3)C2)C1 [Compound 32.2, 6-(4-(5,7-Difluoro-6-hydroxy-1H-indazol-1-yl)phenyl)-2-thia-6-azaspiro[3.3]heptane 2-oxide] | – |
| 0.1 to 1 | CC1CN(c2ccc(-n3ncc4cc(F)c(O)c(F)c43)cc2)CC(C)[S+]1[O-] (stereo not drawn) [Compound 32.3, 4-(4-(5,7-Difluoro-6-hydroxy-1H-indazol-1-yl)phenyl)-2,6-dimethylthiomorpholine 1-oxide] | – |
| < 0.1 | C[C@@H]1CN(c2ccc(-n3ncc4cc(F)c(O)c(F)c43)cc2)C[C@H](C)S1 [Compound 32.4, 1-(4-(cis-2,6-Dimethylthiomorpholino)phenyl)-5,7-difluoro-1H-indazol-6-ol] | – |
| 0.1 to 1 | CC1(C)CCN(c2ccc(N3C(=O)Cc4cc(F)c(O)c(F)c43)cc2)CC1 [Compound 33, 1-(4-(4,4-Dimethylpiperidin-1-yl)phenyl)-5,7-difluoro-6-hydroxyindolin-2-one] | – |
| 1 to 30 | CC1(C)CCN(c2ccc(N3C(=O)C(C)(C)c4cc(F)c(O)c(F)c43)cc2)CC1 [Compound 34, 1-(4-(4,4-Dimethylpiperidin-1-yl)phenyl)-5,7-difluoro-6-hydroxy-3,3-dimethylindolin-2-one] | – |
| – | CC1(C)CCN(c2ccc(N3C(=O)C(O)c4cc(F)c(O)c(F)c43)cc2)CC1 (stereo not drawn) [Compound 35, 1-(4-(4,4-Dimethylpiperidin-1-yl)phenyl)-5,7-difluoro-3,6-dihydroxyindolin-2-one hydrochloride] | < 20 |
| 0.1 to 1 | CC1(C)CCN(c2ccc(-n3[nH]c(=O)c4cc(F)c(O)c(F)c43)cc2)CC1 [Compound 36, 1-(4-(4,4-Dimethylpiperidin-1-yl)phenyl)-5,7-difluoro-6-hydroxy-1H-indazol-3(2H)-one] | – |
| 0.1 to 1 | Cn1c(=O)c2cc(F)c(O)c(F)c2n1-c1ccc(N2CCC(C)(C)CC2)cc1 [Compound 37, 1-(4-(4,4-Dimethylpiperidin-1-yl)phenyl)-5,7-difluoro-6-hydroxy-2-methyl-1H-indazol-3(2H)-one] | – |
| 0.1 to 1 | COc1nn(-c2ccc(N3CCC(C)(C)CC3)cc2)c2c(F)c(O)c(F)cc12 [Compound 37.1, 1-(4-(4,4-Dimethylpiperidin-1-yl)phenyl)-5,7-difluoro-3-methoxy-1H-indazol-6-ol] | – |
| < 0.1 | CC1(C)CCN(c2ccc(-n3c(=O)oc4c(Br)c(F)c(O)c(F)c43)cc2)CC1 [Compound 38, 7-Bromo-3-(4-(4,4-dimethylpiperidin-1-yl)phenyl)-4,6-difluoro-5-hydroxybenzo[d]oxazol-2(3H)-one] | – |
| < 0.1 | CC1(C)CCN(c2ccc(-n3c(=O)oc4cc(F)c(O)c(F)c43)cc2)CC1 [Compound 39, 3-(4-(4,4-Dimethylpiperidin-1-yl)phenyl)-4,6-difluoro-5-hydroxybenzo[d]oxazol-2(3H)-one] | – |
| < 0.1 | Oc1cc2c(nnn2-c2ccc(N3CC4(CCOCC4)C3)cc2)c(Cl)c1F [Compound 40, 1-(4-(7-Oxa-2-azaspiro[3.5]nonan-2-yl)phenyl)-4-chloro-5-fluoro-1H-benzo[d][1,2,3]triazol-6-ol] | – |
